{"source": "patent US11377423B2", "about": "“Inhibitors of histone deacetylase” (The Broad Institute, Inc., priority 2012, dated 2022)", "key": {"HDAC8": {"target": "HDAC8 (Homo sapiens (Human), UniProt Q9BY41)", "sequence (Q9BY41 whole entry)": "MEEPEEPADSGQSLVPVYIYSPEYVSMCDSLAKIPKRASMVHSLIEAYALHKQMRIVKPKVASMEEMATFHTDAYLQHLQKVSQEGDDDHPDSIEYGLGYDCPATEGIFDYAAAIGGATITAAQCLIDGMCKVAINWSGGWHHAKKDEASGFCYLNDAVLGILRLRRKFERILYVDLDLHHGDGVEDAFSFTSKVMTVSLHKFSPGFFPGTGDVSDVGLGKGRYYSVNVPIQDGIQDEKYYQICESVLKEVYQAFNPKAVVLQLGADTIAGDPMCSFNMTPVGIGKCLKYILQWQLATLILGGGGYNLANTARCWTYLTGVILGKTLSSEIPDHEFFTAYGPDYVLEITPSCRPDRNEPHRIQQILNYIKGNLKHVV", "assay": "Caliper HDAC enzymatic endpoint assay, HDAC8", "assay_type": "biochemical", "conditions": "Table 2C; read-out: HDAC8 IC50 after 0 hr preincubation", "procedure": "(§1) The Caliper HDAC Assay Buffer (acronym HAB, 1 liter) was prepared as follows:\n(§2) Substrate B was prepared as 2 mM in 100% DMSO. Its final concentration in the assay for HDACs 4, 5, 7, 8, 9 is 2 μM.\n(§3) LBH was used as quench inhibitor to stop the reaction at the end point.\nIC50 values are in micromolar."}, "HDAC1 [1]": {"target": "T1, HDAC1 (Homo sapiens (Human), UniProt Q13547)", "T1 sequence (Q13547 whole entry)": "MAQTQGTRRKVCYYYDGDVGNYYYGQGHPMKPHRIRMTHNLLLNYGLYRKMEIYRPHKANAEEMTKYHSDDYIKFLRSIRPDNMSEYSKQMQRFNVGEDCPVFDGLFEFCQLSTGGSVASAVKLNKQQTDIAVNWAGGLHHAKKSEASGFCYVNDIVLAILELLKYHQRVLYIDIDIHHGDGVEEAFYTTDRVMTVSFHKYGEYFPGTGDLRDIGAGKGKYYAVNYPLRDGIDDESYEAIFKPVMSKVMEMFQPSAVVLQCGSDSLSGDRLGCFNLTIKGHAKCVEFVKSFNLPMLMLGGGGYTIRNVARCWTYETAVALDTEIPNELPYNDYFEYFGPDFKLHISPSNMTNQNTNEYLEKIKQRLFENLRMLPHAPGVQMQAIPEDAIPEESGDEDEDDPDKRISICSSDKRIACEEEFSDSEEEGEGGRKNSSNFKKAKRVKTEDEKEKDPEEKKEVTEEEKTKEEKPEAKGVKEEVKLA", "assay": "Caliper HDAC enzymatic endpoint assay, HDAC1", "assay_type": "biochemical", "procedure": "(§4) Substrate A was prepared as 2 mM in DMSO. Its final concentration in the assay for HDACs 1, 2, 3, 6 is 2 μM.\n(§5) Below is the HDAC and Substrate concentration used in this assay."}, "[2]": {"system": "human megakaryocyte progenitors", "assay": "Growth of human megakaryocyte progenitors (surrogate assay for platelet depletion)", "assay_type": "cell-based", "conditions": "for toxicity to human megakaryocyte progenitors at higher concentrations: particularly at 10 μM and 20 μM", "method": "Compounds of the invention were evaluated for their effect on the growth of human megakaryocyte progenitors (surrogate assay for platelet depletion). Human CD34+ cells were grown in a collagen-based gel (Megacult-C, Stemcell Technologies). […] 100% indicates no difference in cell viability relative to the DMSO treated cells. […] This is the desired effect."}, "HDAC3 [3]": {"target": "T2, HDAC3 (Homo sapiens (Human), UniProt O15379)", "T2 sequence (O15379 whole entry)": "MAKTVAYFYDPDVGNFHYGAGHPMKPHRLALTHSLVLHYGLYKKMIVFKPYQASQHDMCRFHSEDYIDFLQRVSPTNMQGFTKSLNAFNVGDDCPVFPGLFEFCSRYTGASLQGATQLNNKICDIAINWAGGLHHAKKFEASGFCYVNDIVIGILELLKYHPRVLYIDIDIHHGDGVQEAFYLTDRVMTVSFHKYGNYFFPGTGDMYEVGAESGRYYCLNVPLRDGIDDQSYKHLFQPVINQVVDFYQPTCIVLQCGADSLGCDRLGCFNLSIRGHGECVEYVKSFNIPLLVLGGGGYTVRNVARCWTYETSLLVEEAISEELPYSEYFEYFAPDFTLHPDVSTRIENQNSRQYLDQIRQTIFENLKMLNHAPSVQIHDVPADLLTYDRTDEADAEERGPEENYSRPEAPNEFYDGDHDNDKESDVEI", "T2 sequence (Q9Y618 395-489 partner)": "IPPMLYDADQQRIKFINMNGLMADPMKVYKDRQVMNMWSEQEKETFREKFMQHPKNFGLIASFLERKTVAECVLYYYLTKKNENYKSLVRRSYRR", "assay": "Caliper HDAC enzymatic endpoint assay, HDAC3", "assay_type": "biochemical", "procedure": "as §4, §5"}, "HDAC7": {"target": "HDAC7 (Homo sapiens (Human), UniProt Q8WUI4)", "sequence (Q8WUI4 whole entry)": "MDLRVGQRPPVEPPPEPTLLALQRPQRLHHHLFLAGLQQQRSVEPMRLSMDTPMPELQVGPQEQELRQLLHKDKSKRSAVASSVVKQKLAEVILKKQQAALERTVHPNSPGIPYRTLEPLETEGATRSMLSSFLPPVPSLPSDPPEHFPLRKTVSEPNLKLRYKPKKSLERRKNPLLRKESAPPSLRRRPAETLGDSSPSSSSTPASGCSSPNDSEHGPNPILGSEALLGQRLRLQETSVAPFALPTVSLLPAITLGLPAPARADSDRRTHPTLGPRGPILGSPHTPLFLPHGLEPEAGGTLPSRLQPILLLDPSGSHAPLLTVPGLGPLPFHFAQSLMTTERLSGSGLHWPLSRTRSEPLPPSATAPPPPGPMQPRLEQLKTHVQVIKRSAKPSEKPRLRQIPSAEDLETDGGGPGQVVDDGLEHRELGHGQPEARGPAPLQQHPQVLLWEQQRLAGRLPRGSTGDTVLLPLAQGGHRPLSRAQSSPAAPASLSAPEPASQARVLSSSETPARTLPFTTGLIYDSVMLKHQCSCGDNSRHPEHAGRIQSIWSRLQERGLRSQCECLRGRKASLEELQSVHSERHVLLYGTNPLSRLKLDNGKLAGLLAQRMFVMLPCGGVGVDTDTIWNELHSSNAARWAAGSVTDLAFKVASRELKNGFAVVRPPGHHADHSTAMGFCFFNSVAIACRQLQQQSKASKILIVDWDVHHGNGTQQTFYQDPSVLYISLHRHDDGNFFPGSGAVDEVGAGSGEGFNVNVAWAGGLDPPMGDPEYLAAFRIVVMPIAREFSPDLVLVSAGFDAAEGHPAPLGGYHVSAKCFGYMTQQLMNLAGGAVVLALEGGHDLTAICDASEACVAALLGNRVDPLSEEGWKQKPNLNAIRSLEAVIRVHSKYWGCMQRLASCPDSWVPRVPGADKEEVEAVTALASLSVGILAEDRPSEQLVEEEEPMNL", "assay": "Caliper HDAC enzymatic endpoint assay, HDAC7", "assay_type": "biochemical", "conditions": "Table 2C; read-out: HDAC7 IC50 after 0 hr preincubation", "procedure": "as §1, §2, §3\nIC50 values are in micromolar."}, "HDAC4": {"target": "HDAC4 (Homo sapiens (Human), UniProt P56524)", "sequence (P56524 whole entry)": "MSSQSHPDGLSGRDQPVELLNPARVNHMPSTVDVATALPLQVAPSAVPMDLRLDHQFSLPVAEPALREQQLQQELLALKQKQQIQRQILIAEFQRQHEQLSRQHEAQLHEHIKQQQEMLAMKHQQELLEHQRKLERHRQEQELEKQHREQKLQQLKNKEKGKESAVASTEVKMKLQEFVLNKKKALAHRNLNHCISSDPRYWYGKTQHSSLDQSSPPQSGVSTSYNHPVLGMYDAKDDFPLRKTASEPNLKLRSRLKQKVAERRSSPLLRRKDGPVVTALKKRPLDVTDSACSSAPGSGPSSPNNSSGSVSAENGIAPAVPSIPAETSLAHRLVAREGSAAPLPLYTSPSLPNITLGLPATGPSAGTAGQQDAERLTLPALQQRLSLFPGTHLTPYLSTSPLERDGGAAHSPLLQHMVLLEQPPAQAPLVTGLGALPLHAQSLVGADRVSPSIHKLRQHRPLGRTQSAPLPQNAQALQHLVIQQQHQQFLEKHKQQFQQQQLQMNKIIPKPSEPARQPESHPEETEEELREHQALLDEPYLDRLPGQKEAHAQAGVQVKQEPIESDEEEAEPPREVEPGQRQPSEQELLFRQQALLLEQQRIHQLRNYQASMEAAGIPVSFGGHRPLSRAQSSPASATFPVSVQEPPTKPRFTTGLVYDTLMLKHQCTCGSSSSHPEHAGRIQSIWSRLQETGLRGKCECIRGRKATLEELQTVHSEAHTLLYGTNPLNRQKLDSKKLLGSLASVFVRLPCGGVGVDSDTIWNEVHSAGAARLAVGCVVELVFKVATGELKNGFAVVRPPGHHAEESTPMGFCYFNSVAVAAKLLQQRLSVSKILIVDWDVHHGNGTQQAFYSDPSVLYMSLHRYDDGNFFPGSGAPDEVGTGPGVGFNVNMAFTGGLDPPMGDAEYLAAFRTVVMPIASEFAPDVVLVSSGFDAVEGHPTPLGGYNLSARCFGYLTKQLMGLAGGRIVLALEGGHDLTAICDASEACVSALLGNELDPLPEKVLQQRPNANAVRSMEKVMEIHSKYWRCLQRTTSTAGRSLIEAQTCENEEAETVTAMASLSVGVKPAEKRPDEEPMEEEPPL", "assay": "Caliper HDAC enzymatic endpoint assay, HDAC4", "assay_type": "biochemical", "conditions": "Table 2C; read-out: HDAC4 IC50 after 0 hr preincubation", "procedure": "as §1, §2, §3\nIC50 values are in micromolar."}, "HDAC6": {"target": "HDAC6 (Homo sapiens (Human), UniProt Q9UBN7)", "assay": "Caliper HDAC enzymatic endpoint assay, HDAC6", "assay_type": "biochemical", "conditions": "Table 2C; read-out: HDAC6 IC50 after 0 hr preincubation", "procedure": "as §4, §5"}, "HDAC9": {"target": "HDAC9 (Homo sapiens (Human), UniProt Q9UKV0)", "sequence (Q9UKV0 whole entry)": "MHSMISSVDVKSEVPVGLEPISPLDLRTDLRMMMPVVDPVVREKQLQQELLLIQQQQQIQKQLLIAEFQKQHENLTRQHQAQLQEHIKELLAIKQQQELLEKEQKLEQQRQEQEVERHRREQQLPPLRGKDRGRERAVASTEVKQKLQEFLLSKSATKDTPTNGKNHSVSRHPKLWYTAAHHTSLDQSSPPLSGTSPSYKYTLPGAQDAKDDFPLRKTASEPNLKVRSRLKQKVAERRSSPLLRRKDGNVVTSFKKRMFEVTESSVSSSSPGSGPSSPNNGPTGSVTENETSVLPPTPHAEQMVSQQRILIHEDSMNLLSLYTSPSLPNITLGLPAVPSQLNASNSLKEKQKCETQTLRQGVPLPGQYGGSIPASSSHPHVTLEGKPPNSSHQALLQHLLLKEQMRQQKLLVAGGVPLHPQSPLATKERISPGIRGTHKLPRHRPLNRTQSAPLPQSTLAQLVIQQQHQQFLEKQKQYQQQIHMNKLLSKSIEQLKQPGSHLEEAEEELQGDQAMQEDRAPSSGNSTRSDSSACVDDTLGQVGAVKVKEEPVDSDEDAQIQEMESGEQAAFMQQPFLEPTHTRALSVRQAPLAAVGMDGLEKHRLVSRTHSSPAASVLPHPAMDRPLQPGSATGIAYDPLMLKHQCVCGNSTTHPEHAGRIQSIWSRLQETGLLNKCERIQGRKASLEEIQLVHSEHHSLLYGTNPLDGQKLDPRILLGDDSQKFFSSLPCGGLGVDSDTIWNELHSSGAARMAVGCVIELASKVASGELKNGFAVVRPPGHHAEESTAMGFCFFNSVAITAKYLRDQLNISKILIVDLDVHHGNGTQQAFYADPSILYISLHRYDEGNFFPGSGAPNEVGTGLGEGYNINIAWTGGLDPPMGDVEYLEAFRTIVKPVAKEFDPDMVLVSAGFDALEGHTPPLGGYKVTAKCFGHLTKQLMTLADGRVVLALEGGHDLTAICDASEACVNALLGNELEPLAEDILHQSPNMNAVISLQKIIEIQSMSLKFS", "assay": "Caliper HDAC enzymatic endpoint assay, HDAC9", "assay_type": "biochemical", "conditions": "Table 2C; read-out: HDAC9 IC50 after 0 hr preincubation", "procedure": "as §1, §2, §3\nIC50 values are in micromolar."}, "HDAC2 [4]": {"target": "T3, HDAC2 (Homo sapiens (Human), UniProt Q92769)", "T3 sequence (Q92769 whole entry)": "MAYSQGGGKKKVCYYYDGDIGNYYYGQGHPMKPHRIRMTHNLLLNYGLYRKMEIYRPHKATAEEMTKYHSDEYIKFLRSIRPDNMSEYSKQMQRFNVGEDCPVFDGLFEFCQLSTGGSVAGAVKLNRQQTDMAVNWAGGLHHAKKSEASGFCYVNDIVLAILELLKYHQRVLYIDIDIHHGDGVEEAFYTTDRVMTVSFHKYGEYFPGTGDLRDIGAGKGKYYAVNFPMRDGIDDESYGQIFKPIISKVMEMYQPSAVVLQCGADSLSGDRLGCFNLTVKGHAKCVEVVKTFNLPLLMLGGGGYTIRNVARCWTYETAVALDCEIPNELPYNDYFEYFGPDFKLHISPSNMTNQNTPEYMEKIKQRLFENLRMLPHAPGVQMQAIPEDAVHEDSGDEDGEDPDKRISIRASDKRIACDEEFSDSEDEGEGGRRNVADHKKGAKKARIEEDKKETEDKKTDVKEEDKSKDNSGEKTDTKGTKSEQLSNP", "assay": "Caliper HDAC enzymatic endpoint assay, HDAC2", "assay_type": "biochemical", "procedure": "as §4, §5"}, "HDAC5": {"target": "HDAC5 (Homo sapiens (Human), UniProt Q9UQL6)", "assay": "Caliper HDAC enzymatic endpoint assay, HDAC5", "assay_type": "biochemical", "conditions": "Table 2C; read-out: HDAC5 IC50 after 0 hr preincubation", "procedure": "as §1, §2, §3\nIC50 values are in micromolar."}, "HDAC2 [5]": {"target": "T3, HDAC2"}, "HDAC1 [6]": {"target": "T1, HDAC1", "assay": "Kinetics of the inhibition of HDAC1", "conditions": "for T1/2: HDAC1 residence", "procedure": "(§6) HDAC1 inactivation kinetic constant was determined by curve-fitting of the plot to a first-order rate equation."}, "HDAC1 [7]": {"target": "T1, HDAC1", "assay": "Binding constant from HDAC1 inactivation kinetics", "conditions": "HDAC1, values marked *; read-out: Ki (binding constant derived from HDAC1 inactivation kinetics)", "procedure": "as §6"}, "HDAC2 [8]": {"target": "T3, HDAC2", "assay": "Kinetics of the inhibition of HDAC2"}, "HDAC3 [9]": {"target": "T2, HDAC3", "assay": "Kinetics of the inhibition of HDAC3"}, "[10]": {"system": "HDACs 1, 2, 3, 4, 5, 6, 7, 8, and 9", "assay": "HDAC selectivity panel (Caliper), isoform selectivity", "conditions": "from IC50 values"}, "[11]": {"conditions": "read-out: HDAC1 IC50 3 h Preinc, Table 2A, 3 h preincubation"}, "[12]": {"conditions": "read-out: HDAC3 IC50 3 h Preinc, Table 2A, 3 h preincubation"}, "[13]": {"conditions": "read-out: HDAC2 IC50 3 h Preinc, Table 2A, 3 h preincubation"}, "[14]": {"conditions": "read-out: HDAC1 IC50 3 h Prein, Table 2, 3 h preincubation"}, "[15]": {"conditions": "read-out: HDAC3 IC50 3 h Prein, Table 2, 3 h preincubation"}, "[16]": {"conditions": "read-out: HDAC2 IC50 3 h Prein, Table 2, 3 h preincubation"}}, "note": "Where two headings read alike, the source gives them in different places.", "data": [{"compound": "CC(=O)Nc1ccc(C(=O)Nc2cc(-c3ccncc3)ccc2N)cc1", "note": "[BRD2492, reference compound]", "values": [{"measurement": "IC50", "setting": "HDAC8", "value": "> 33000", "unit": "nM"}, {"measurement": "IC50", "setting": "HDAC1 [1]; read-out: HDAC1 IC50 after 3 hr preincubation, Table 2B", "value": 2, "unit": "nM"}, {"measurement": "toxicity to human megakaryocyte progenitors at higher concentrations", "setting": "[2]", "value": "highly toxic"}, {"measurement": "IC50", "setting": "HDAC3 [3]; read-out: HDAC3 IC50 after 3 hr preincubation, Table 2B", "value": 2080, "unit": "nM"}, {"measurement": "IC50", "setting": "HDAC7", "value": "> 33000", "unit": "nM"}, {"measurement": "IC50", "setting": "HDAC4", "value": "> 33000", "unit": "nM"}, {"measurement": "IC50", "setting": "HDAC6", "value": "> 33000", "unit": "nM"}, {"measurement": "IC50", "setting": "HDAC9", "value": "> 33000", "unit": "nM"}, {"measurement": "IC50", "setting": "HDAC2 [4]; read-out: HDAC2 IC50 after 3 hr preincubation, Table 2B", "value": 19, "unit": "nM"}, {"measurement": "IC50", "setting": "HDAC5", "value": "> 33000", "unit": "nM"}]}, {"compound": "CC(=O)Nc1ccc(C(=O)Nc2ccccc2N)cc1", "note": "[CI-994, 4-(Acetylamino)-N-(2-aminophenyl)benzamide, reference compound]", "values": [{"measurement": "T1/2", "setting": "HDAC2 [5]", "value": 3.17, "unit": "h"}, {"measurement": "effect on megakaryocyte progenitor cell growth at 1 μM", "setting": "[2]; 1 μM", "value": "significant toxic effect on cell growth"}, {"measurement": "toxicity to human megakaryocyte progenitors at higher concentrations", "setting": "[2]", "value": "highly toxic"}, {"measurement": "T1/2", "setting": "HDAC1 [6]", "value": 1.23, "unit": "h"}]}, {"compound": "Nc1cc(F)ccc1NC(=O)c1ccc(CNc2nccc(-c3cccnc3)n2)cc1", "note": "[Cmpd 2A, reference compound]", "values": [{"measurement": "IC50", "setting": "HDAC1 [1]; [11]", "value": 12, "unit": "nM"}, {"measurement": "IC50", "setting": "HDAC3 [3]; [12]", "value": 17, "unit": "nM"}, {"measurement": "IC50", "setting": "HDAC2 [4]; [13]", "value": 18, "unit": "nM"}]}, {"compound": "Nc1ccccc1NC(=O)c1ccc(CNC(=O)/C=C/c2cccnc2)cc1", "note": "[Cmpd 3A, reference compound]", "values": [{"measurement": "IC50", "setting": "HDAC1 [1]; [11]", "value": 4, "unit": "nM"}, {"measurement": "IC50", "setting": "HDAC3 [3]; [12]", "value": 22, "unit": "nM"}, {"measurement": "IC50", "setting": "HDAC2 [4]; [13]", "value": 23, "unit": "nM"}]}, {"compound": "Nc1cc(F)ccc1NC(=O)c1ccc(CNC(=O)OCc2cccnc2)cc1", "note": "[Compound 1A, reference compound]", "values": [{"measurement": "IC50", "setting": "HDAC1 [1]; [11]", "value": 120, "unit": "nM"}, {"measurement": "IC50", "setting": "HDAC1 [1]; read-out: HDAC1 IC50 @3 hr, 3 hr preincubation", "value": 120, "unit": "nM"}, {"measurement": "KI (inactivation)", "setting": "HDAC1 [7]", "value": 160, "unit": "nM"}, {"measurement": "Ki", "setting": "HDAC2 [8]", "value": 160, "unit": "nM"}, {"measurement": "koff", "setting": "HDAC2 [8]", "value": 0.000633, "unit": "s⁻¹"}, {"measurement": "Kon", "setting": "HDAC2 [8]; HDAC2", "value": "0.24 min^−1, uM^−1"}, {"measurement": "T1/2", "setting": "HDAC2 [8]; HDAC2 residence", "value": 0.283, "unit": "h"}, {"measurement": "IC50", "setting": "HDAC3 [3]; [12]", "value": 36, "unit": "nM"}, {"measurement": "IC50", "setting": "HDAC3 [3]; read-out: HDAC3 IC50 @3 hr, 3 hr preincubation", "value": 36, "unit": "nM"}, {"measurement": "koff", "setting": "HDAC1 [6]", "value": "> 0.00333", "unit": "s⁻¹"}, {"measurement": "Kon", "setting": "HDAC1 [6]; HDAC1", "value": "1.000 min^−1, uM^−1"}, {"measurement": "T1/2", "setting": "HDAC1 [6]", "value": "<0.067", "unit": "h"}, {"measurement": "Ki", "setting": "HDAC3 [9]", "value": 93, "unit": "nM"}, {"measurement": "koff", "setting": "HDAC3 [9]", "value": 0.000147, "unit": "s⁻¹"}, {"measurement": "loss in potency for HDAC3 (Ki) compared to MS-275", "setting": "HDAC3 [9]", "value": 8, "unit": "fold"}, {"measurement": "Kon", "setting": "HDAC3 [9]; HDAC3", "value": "0.093 min^−1, uM^−1"}, {"measurement": "T1/2", "setting": "HDAC3 [9]; HDAC3 residence", "value": 1.32, "unit": "h"}, {"measurement": "less selective than compound 1", "setting": "HDAC3 [9]; Ki selectivity HDAC3 versus HDAC1 and 2", "value": 100, "unit": "fold"}, {"measurement": "binding selectivity (Ki) for HDAC3 versus HDAC1", "setting": "HDAC3 [9]; thermodynamic (Ki)", "value": 1.7, "unit": "fold"}, {"measurement": "binding selectivity (Ki) for HDAC3 versus HDAC2", "setting": "HDAC3 [9]; thermodynamic (Ki)", "value": 1.7, "unit": "fold"}, {"measurement": "IC50", "setting": "HDAC2 [4]; [13]", "value": 157, "unit": "nM"}, {"measurement": "IC50", "setting": "HDAC2 [4]; read-out: HDAC2 IC50 @3 hr, 3 hr preincubation", "value": 157, "unit": "nM"}]}, {"compound": "CC(=O)Nc1ccc(C(=O)Nc2ccc(Cl)cc2N)cc1", "note": "[Compound 2, 4-acetamido-N-(2-amino-4-chlorophenyl)benzamide]", "values": [{"measurement": "IC50", "setting": "HDAC1 [1]; [14]", "value": 4560, "unit": "nM"}, {"measurement": "IC50", "setting": "HDAC3 [3]; [15]", "value": 2050, "unit": "nM"}, {"measurement": "IC50", "setting": "HDAC2 [4]; [16]", "value": 24400, "unit": "nM"}]}, {"compound": "CC(=O)Nc1ccc(C(=O)Nc2c(N)cccc2F)cc1", "note": "[Compound 3, 4-acetamido-N-(2-amino-6-fluorophenyl)benzamide]", "values": [{"measurement": "IC50", "setting": "HDAC1 [1]; [14]", "value": 2180, "unit": "nM"}, {"measurement": "IC50", "setting": "HDAC3 [3]; [15]", "value": 551, "unit": "nM"}, {"measurement": "HDAC isoform selectivity", "setting": "[10]", "value": "HDAC3 selective compound"}, {"measurement": "IC50", "setting": "HDAC2 [4]; [16]", "value": 4930, "unit": "nM"}]}, {"compound": "CC(=O)Nc1ccc(C(=O)Nc2cccc(F)c2N)cc1", "note": "[Compound 4, 4-acetamido-N-(2-amino-3-fluorophenyl)benzamide]", "values": [{"measurement": "IC50", "setting": "HDAC1 [1]; [14]", "value": 2120, "unit": "nM"}, {"measurement": "IC50", "setting": "HDAC3 [3]; [15]", "value": 376, "unit": "nM"}, {"measurement": "HDAC isoform selectivity", "setting": "[10]", "value": "HDAC3 selective compound"}, {"measurement": "IC50", "setting": "HDAC2 [4]; [16]", "value": 4440, "unit": "nM"}]}, {"compound": "CC(=O)Nc1ccc(C(=O)Nc2cc(Br)ccc2N)cc1", "note": "[Compound 5, 4-acetamido-N-(2-amino-5-bromophenyl)benzamide]", "values": [{"measurement": "IC50", "setting": "HDAC1 [1]; [14]", "value": 1730, "unit": "nM"}, {"measurement": "IC50", "setting": "HDAC3 [3]; [15]", "value": 299, "unit": "nM"}, {"measurement": "IC50", "setting": "HDAC2 [4]; [16]", "value": 3540, "unit": "nM"}]}]}
